Tests used:
Calu-3 cells [1] = format: cell-based, human
Calu-3 cells [2] = test system: Calu-3 cells

Row | SMILES | increase in transduction efficiency with respect to virus formulated in saline (factor) (Calu-3 cells [1]) | cell lysis (Calu-3 cells [2]) [%]
1 | OC[C@H]1O[C@@](CO)(O[C@H]2O[C@H](CO)[C@@H](O)[C@H](O)[C@H]2O)[C@@H](O)[C@@H]1O [sucrose] | 1.96 | –
2 | OC[C@H]1O[C@H](OC[C@H]2O[C@H](O[C@]3(CO)O[C@H](CO)[C@@H](O)[C@@H]3O)[C@H](O)[C@@H](O)[C@@H]2O)[C@H](O)[C@@H](O)[C@H]1O [raffinose] | did not significantly enhance transduction | –
3 | CCCCCCCCCCCCO[C@@H]1O[C@H](CO)[C@@H](O[C@H]2O[C@H](CO)[C@@H](O)[C@H](O)[C@H]2O)[C@H](O)[C@H]1O [nDMPS, N-dodecyl-β-D-maltopyranoside, reference compound] | second most efficacious formulation | > 80
4 | OC[C@H]1O[C@@](CO)(O[C@H]2O[C@H](CO)[C@@H](O)[C@H](O)[C@H]2O)[C@@H](O[C@H]2O[C@H](CO)[C@@H](O)[C@H](O)[C@H]2O)[C@@H]1O [melezitose] | 1.51 | –
5 | OC[C@@H](O)[C@@H](O)[C@H](O)[C@@H](O)CO [sorbitol] | did not significantly enhance transduction | –
6 | OC[C@@H](O)[C@@H](O)[C@H](O)[C@H](O)CO [mannitol] | 1.61 | –
